Source: the NIST ThermoML archive (doi:10.1016/j.jct.2005.04.011)

Assays:
[1] = refractive index (Na D-line) (dimensionless); cn = amount concentration of the nth substance listed, in mol/dm3; conditions: 101 kPa, Liquid, Standard Abbe refractometry, c1 = 0.2
[2] = cn = amount concentration of the nth substance listed, in mol/dm3; conditions: 101 kPa, Liquid, c1 = 0.2; for mass density: Pycnometric method

O=C[C@H](O)[C@@H](O)[C@H](O)[C@H](O)CO [D-glucose] + O
Conditions | mass density, 298.15 K [kg/m3] | mass density, 313.15 K [kg/m3] | refractive index, 298.15 K | refractive index, 303.15 K | refractive index, 308.15 K | refractive index, 313.15 K | viscosity, 298.15 K [mPa·s] | viscosity, 303.15 K [mPa·s] | viscosity, 308.15 K [mPa·s] | viscosity, 313.15 K [mPa·s]
[1] | – | – | 1.336 | 1.335 | 1.3349 | 1.334 | – | – | – | –
[2] | 1010.3 | 1005.3 | – | – | – | – | 1.01 | 0.89 | 0.8 | 0.7
